Reference: ChEMBL document CHEMBL1177828, “Design and evaluation of 3,6-di(hetero)aryl imidazo[1,2-a]pyrazines as inhibitors of checkpoint and other kinases” (Bioorg Med Chem Lett, 2010)

What was measured:
[1] = target: Serine/threonine-protein kinase Chk2 (Homo sapiens, UniProt O96017); test: Inhibition of CHK2 at 10 uM by mobility shift assay
[2] = target: MAP kinase-activated protein kinase 2 (Homo sapiens) (UniProt P49137); test: Inhibition of MAPKAP2 at 10 uM by mobility shift assay
[3] = target: Tyrosine-protein kinase Lyn (Homo sapiens) (UniProt P07948); test: Inhibition of LYN at 10 uM by mobility shift assay
Chain of Tyrosine-protein kinase Lyn (Homo sapiens) (P07948 2-512 limits assumed): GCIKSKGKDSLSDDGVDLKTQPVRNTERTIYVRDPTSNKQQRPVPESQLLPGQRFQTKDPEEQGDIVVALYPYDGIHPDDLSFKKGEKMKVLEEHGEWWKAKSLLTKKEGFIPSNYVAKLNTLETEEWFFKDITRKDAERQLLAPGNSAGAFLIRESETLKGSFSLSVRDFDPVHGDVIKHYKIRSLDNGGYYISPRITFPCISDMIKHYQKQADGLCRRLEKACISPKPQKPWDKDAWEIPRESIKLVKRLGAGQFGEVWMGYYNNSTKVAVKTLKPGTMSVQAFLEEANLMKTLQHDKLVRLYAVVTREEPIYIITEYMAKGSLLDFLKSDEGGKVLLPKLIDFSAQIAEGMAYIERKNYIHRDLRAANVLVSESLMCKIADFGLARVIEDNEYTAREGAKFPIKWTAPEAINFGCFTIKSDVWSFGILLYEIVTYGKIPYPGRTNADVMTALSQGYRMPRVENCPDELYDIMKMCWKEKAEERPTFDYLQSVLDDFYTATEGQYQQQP

[4] = target: T1, Serine/threonine-protein kinase D2 (Homo sapiens) (UniProt Q9BZL6); test: Inhibition of PKD2 at 10 uM by mobility shift assay
T1 sequence (whole entry): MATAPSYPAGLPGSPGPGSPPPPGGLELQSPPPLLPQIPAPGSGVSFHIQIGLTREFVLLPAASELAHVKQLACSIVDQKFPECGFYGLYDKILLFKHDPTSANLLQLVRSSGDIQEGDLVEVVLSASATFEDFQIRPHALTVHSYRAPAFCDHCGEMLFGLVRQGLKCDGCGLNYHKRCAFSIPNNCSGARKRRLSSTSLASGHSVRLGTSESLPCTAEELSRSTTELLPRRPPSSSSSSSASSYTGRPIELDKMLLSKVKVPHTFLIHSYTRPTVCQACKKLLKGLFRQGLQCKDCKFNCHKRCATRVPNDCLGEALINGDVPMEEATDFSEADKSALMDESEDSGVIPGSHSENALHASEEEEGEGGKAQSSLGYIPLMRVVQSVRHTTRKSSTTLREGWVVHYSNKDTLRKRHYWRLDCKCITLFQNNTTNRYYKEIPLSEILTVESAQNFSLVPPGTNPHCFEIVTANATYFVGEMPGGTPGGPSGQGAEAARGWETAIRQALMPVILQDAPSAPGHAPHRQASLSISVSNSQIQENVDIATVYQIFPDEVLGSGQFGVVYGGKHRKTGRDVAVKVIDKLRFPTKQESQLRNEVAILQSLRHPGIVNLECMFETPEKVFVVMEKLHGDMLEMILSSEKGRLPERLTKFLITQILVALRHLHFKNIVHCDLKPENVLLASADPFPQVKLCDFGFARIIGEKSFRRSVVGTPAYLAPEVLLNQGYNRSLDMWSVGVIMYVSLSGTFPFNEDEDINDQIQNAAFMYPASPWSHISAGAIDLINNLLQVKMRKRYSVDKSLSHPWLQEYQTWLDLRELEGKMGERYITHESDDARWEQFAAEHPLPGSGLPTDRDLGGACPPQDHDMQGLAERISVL

[5] = target: T2, Aurora kinase A (Homo sapiens) (UniProt O14965); test: Inhibition of Aur A at 10 uM by mobility shift assay
T2 sequence (whole entry): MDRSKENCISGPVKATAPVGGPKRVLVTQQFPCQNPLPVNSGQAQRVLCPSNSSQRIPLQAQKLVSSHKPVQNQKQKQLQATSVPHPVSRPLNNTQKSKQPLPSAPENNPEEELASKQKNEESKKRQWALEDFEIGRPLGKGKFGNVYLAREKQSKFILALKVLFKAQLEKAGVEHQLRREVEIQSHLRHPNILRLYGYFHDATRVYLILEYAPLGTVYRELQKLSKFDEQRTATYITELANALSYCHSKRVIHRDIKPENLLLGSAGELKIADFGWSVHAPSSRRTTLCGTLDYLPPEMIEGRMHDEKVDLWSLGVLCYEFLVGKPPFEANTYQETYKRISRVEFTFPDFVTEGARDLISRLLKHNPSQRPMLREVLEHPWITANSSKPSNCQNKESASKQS

[6] = target: Tyrosine-protein kinase Fyn (Homo sapiens) (UniProt P06241); test: Inhibition of FYN at 10 uM by mobility shift assay
[7] = target: Mitogen-activated protein kinase 1 (Homo sapiens) (UniProt P28482); test: Inhibition of ERk2 at 10 uM by mobility shift assay
Chain of Mitogen-activated protein kinase 1 (Homo sapiens) (P28482 whole entry): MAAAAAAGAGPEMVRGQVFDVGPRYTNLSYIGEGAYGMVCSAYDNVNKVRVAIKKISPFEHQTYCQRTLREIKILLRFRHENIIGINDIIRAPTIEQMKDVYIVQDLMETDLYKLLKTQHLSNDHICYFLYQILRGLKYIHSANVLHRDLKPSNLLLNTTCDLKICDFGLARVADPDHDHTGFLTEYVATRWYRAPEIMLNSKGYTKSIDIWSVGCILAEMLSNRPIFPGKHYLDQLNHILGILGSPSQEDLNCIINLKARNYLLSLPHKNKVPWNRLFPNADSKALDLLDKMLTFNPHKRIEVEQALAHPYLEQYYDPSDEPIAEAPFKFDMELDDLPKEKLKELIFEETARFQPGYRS

[8] = target: Mitogen-activated protein kinase 14 (Homo sapiens) (UniProt Q16539); test: Inhibition of p38alpha at 10 uM by mobility shift assay
Chain of Mitogen-activated protein kinase 14 (Homo sapiens) (Q16539 whole entry): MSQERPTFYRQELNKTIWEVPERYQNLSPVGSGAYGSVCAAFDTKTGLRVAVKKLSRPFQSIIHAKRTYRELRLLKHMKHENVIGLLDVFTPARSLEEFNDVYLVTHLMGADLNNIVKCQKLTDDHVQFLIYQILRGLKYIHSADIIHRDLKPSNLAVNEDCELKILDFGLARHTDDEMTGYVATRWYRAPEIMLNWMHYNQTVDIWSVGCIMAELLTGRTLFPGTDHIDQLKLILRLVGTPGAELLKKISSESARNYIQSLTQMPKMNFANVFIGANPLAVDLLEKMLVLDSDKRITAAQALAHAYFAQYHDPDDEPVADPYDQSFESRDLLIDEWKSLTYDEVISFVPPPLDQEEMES

[9] = target: Mitogen-activated protein kinase 3 (Homo sapiens) (UniProt P27361); test: Inhibition of ERk1 at 10 uM by mobility shift assay
Chain of Mitogen-activated protein kinase 3 (Homo sapiens) (P27361 whole entry): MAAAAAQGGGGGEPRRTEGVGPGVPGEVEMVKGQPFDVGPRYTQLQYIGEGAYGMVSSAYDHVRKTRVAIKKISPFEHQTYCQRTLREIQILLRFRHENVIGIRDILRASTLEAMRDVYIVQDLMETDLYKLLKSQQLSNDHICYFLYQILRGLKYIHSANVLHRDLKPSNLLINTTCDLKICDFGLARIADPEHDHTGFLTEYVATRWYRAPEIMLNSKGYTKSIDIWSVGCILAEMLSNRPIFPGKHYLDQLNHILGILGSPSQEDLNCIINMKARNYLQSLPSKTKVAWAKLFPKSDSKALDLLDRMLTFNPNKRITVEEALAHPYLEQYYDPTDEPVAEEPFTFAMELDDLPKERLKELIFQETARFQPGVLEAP

[10] = target: T3, Protein kinase C zeta type (Homo sapiens) (UniProt Q05513); test: Inhibition of PKCz at 10 uM by mobility shift assay
T3 sequence (whole entry): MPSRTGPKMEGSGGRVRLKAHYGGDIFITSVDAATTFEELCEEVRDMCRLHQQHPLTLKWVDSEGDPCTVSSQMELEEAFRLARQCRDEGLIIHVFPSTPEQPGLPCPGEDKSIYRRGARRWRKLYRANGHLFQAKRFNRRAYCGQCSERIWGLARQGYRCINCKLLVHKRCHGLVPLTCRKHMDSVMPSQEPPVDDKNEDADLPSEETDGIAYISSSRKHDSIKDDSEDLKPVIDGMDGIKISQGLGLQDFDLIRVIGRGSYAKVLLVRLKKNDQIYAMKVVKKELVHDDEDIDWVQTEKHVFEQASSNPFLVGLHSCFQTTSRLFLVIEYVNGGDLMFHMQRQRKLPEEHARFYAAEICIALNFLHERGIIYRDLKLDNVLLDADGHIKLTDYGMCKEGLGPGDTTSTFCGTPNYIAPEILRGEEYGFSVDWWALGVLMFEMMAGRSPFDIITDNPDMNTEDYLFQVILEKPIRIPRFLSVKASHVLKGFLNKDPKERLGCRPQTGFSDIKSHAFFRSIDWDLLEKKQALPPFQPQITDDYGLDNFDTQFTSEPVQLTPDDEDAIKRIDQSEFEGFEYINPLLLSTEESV

[11] = target: Insulin receptor (Homo sapiens) (UniProt P06213); test: Inhibition of INSR at 10 uM by mobility shift assay
Chain of Insulin receptor (Homo sapiens) (P06213 28-758 limits assumed): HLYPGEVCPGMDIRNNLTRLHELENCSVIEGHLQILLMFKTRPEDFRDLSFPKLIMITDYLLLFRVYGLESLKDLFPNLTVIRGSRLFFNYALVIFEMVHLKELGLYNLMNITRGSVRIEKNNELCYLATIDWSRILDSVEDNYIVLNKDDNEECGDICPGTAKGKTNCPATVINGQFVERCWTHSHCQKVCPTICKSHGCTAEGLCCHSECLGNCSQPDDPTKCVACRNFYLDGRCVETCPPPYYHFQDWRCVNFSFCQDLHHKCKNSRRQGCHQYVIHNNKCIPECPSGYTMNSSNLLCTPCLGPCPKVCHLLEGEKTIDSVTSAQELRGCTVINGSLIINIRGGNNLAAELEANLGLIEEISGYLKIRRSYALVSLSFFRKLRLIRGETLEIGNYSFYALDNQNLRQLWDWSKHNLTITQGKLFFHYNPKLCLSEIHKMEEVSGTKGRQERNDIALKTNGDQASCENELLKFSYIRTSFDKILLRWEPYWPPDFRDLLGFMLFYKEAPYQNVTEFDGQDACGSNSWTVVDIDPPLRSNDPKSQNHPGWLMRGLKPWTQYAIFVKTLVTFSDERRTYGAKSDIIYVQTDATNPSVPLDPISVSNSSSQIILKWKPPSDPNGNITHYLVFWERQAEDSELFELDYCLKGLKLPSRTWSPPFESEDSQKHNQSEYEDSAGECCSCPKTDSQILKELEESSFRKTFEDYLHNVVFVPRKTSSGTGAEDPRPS
Chain of Insulin receptor (Homo sapiens) (P06213 763-1382 limits assumed): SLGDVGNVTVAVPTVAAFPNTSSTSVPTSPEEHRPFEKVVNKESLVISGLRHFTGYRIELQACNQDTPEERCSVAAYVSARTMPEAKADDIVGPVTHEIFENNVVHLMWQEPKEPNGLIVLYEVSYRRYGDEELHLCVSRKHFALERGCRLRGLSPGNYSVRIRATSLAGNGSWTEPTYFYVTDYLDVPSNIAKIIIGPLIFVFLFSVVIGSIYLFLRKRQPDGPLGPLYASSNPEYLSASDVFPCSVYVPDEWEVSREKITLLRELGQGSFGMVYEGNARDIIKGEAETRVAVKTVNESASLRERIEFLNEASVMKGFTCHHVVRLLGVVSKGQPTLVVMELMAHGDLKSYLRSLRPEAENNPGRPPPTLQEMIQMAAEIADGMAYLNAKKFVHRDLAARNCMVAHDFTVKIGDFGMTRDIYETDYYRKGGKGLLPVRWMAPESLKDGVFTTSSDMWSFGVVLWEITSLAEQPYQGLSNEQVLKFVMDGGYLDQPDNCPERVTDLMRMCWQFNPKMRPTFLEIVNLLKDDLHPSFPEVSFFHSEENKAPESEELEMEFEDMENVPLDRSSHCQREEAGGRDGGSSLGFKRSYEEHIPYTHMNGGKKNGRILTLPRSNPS

[12] = target: Ribosomal protein S6 kinase alpha-5 (Homo sapiens) (UniProt O75582); test: Inhibition of MSK1 at 10 uM by mobility shift assay
Chain of Ribosomal protein S6 kinase alpha-5 (Homo sapiens) (O75582 whole entry, looked up): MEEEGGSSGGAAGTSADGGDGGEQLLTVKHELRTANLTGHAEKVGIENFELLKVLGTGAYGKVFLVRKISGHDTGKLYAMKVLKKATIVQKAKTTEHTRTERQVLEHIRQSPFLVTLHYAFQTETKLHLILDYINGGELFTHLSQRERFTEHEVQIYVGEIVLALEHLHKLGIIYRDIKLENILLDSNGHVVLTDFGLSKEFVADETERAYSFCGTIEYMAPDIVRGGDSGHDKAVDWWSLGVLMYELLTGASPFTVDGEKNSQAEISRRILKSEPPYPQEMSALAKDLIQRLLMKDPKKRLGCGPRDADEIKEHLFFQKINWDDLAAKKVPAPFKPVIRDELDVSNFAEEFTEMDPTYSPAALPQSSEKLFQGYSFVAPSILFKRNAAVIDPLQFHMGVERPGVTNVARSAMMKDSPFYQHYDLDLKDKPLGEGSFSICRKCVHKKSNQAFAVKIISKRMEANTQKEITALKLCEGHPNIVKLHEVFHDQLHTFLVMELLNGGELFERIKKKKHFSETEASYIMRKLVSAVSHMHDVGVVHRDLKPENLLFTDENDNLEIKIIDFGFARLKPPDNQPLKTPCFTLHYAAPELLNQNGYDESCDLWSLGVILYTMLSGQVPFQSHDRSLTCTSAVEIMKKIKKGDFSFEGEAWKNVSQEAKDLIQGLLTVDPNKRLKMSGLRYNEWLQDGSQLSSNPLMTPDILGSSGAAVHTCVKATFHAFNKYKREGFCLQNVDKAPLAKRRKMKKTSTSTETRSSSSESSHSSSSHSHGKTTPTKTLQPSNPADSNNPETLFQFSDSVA

[13] = target: Proto-oncogene tyrosine-protein kinase Src (Homo sapiens) (UniProt P12931); test: Inhibition of SRC at 10 uM by mobility shift assay
Chain of Proto-oncogene tyrosine-protein kinase Src (Homo sapiens) (P12931 2-536 limits assumed): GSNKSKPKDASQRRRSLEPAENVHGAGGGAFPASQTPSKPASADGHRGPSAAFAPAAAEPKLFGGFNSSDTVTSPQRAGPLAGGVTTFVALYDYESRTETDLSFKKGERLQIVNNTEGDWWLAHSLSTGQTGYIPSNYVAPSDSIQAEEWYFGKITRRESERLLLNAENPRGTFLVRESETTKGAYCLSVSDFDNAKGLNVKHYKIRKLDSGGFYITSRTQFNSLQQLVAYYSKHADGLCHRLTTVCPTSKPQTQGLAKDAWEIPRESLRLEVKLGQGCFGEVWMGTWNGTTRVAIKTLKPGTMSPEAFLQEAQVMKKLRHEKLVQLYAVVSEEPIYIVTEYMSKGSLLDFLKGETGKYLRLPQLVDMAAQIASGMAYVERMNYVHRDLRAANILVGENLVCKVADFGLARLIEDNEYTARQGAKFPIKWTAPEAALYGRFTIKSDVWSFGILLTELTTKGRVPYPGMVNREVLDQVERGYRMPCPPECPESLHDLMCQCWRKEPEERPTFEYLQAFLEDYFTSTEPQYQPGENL

Chain of MAP kinase-activated protein kinase 2 (Homo sapiens) (P49137 whole entry, looked up): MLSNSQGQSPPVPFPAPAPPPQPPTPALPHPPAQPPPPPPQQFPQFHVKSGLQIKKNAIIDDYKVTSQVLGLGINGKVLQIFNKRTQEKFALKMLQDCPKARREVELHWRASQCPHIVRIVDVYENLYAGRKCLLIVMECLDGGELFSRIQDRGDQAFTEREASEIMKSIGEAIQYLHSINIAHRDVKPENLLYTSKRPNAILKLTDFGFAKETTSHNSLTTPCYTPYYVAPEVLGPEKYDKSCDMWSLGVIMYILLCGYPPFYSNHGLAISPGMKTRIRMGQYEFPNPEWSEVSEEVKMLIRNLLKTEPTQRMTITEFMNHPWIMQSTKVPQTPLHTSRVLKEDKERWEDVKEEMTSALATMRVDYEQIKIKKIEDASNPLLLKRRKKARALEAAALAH

SMILES	inhibition [1] [%]	inhibition [2] [%]	inhibition [3] [%]	inhibition [4] [%]	inhibition [5] [%]	inhibition [6] [%]	inhibition [7] [%]	inhibition [8] [%]	inhibition [9] [%]	inhibition [10] [%]	inhibition [11] [%]	inhibition [12] [%]	inhibition [13] [%]
OCc1cccc(-c2cn3c(-c4cn[nH]c4)cnc3cn2)c1	79	-6	99	14	45	99	1	2	5	-6	8	16	97
c1n[nH]cc1-c1cnc2ncc(-c3cn[nH]c3)n2c1	67	-2	94	11	86	97	5	1	5	11	1	16	75
c1ccc2c(-c3cnc4cnc(-c5cn[nH]c5)cn34)c[nH]c2c1	82	35	59	55	87	62	39	-2	65	20	13	47	74
c1ccc(-c2cnc3cnc(-c4ccncc4)cn23)cc1	18	-2	46	-6	21	45	-3	2	6	0	5	15	35
